We go through 29 compounds from PubChem BioAssay (NCI).

Common to all, as to experiment: growth of human tumour cells (NCI), 48 h
Assay [1] has as its system HL-60(TB) leukemia.
The test system of assay [2] is HOP-92 NSCLC.
Assay [3] concerns NCI-H23 lung.
Assay [4] relates to HCC-2998 colon.
Assay [5] concerns UACC-257 melanoma.
Assay [6] relates to SK-MEL-5 melanoma.
The test system of assay [7] is A498 renal.
The test system of assay [8] is DU-145 prostate.
Assay [9] concerns HOP-62 NSCLC.
Assay [10] deals with SR leukemia.

Each structure is given as a SMILES string. Where “and” joins values, the source holds several entries; their conditions need not be identical. Equal values may be shown once.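 Cells were grown in 96-well plates and exposed to each compound for 48 hours at five concentrations; endpoints were interpolated linearly between bracketing concentrations, or set to the highest concentration if not reached. Here, GI50 denotes the concentration required for 50% inhibition of growth. The concentration for full growth arrest is given as TGI.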 Where only a bound is given, the exact number is not on record here.

For the compound `COc1c2c(c(O)c3c4c(c(C)cc13)C1OC3(C(OC)OC5CC(C)(O)C(OC6CC(C)(O)C(O)C(C)O6)C(C)O5)OC1C(OC)(O4)C31CO1)C(=O)C(O)CC2OC1CC(C)(O)C(OC(C)=O)C(C)O1` (centres undefined), the TGI in [1], in assay [2], in assay [3], in assay [4], in [5] and in assay [6] was under 0.01 µM in each case.
For `CCOC(=O)c1sc(NC(=O)COc2ccc(/C=C3\CCc4cc(OC)ccc4C3=O)cc2)nc1C`, the GI50 was 13.2 µM in [7]; 0.294 µM in assay [1]; 1.18 µM in assay [2]; 12.8 µM in assay [8]; 13.7 µM in assay [3]; 1.47 µM in assay [4]. Further, the GI50 in [5] was 11.5 µM; in [6], 12.4 µM; in assay [9], 15.2 µM. The TGI in assay [7] turned out to be 30.1 µM; in assay [1], 0.949 µM; in assay [2] it was 4.61 µM; in assay [8], 26.4 µM; in [3], 32.4 µM; in [4], 4.38 µM. Further, the TGI stood at 25 µM in assay [5], 24.8 µM in [6] and 30.6 µM in [9].
In the case of `O=C(O)C1CC2C=CCC(C2)C1` (centres undefined), the TGI in assay [1], in assay [2], in assay [3], in [5], in [10] and in [6] was over 100 µM in each case. This compound also came in with a TGI in [9] of over 100 µM.
For `COc1ccccc1/C=C(\NC(=O)c1ccccc1)c1nc2ccccc2[nH]1`, the TGI was over 100 µM in assay [7]; 72.5 µM in [2]; over 100 µM in [3]; over 100 µM in assay [5]; 48 µM in assay [6].
Regarding `CSC(=S)NCc1cn(C)c2ccccc12`, the GI50 in [7] was 12.8 µM; in [2] it was 23.9 µM; in assay [8] it was 29.1 µM; in assay [3] it was 29.8 µM; in assay [4] it was 25.1 µM; in assay [5], 54.8 µM. For the same compound, the GI50 in assay [6] is 13.9 µM; in assay [9] it was 49.4 µM. Moreover, the TGI in assay [7] was 29.2 µM; in assay [2] it was over 100 µM; in assay [8] it was over 100 µM; in [3], 87.7 µM; in [4], 98.7 µM; in [5], over 100 µM. For the same compound, the TGI in assay [6] is 32.8 µM; in [9] it was over 100 µM.
Regarding `C=C(c1ccccc1)c1cc2c(=O)[nH]ccc2n1C`, the TGI in assay [1] was 38.1 µM; in assay [2] it was 61.3 µM; in assay [3], over 100 µM; in assay [4], over 100 µM; in assay [5], over 100 µM; in [6], 71.1 µM. In [9], the TGI is over 100 µM.
On to `Nc1ccccc1SC(/C=C/NNC1=NC(c2ccccc2)C(c2ccccc2)=NN1)c1ccccc1` (centres undefined), for which the TGI in assay [7] amounted to 36.8 µM; in [1], 13.1 µM; in [2], 22.1 µM; in assay [3] it was 21.4 µM; in assay [4] it was 30.5 µM; in [5] it was 28.1 µM. For the same compound, the TGI was determined as 26.8 µM in assay [6] and 34.3 µM in assay [9].
Turning to `Cc1cc(O)c2c(c1)OC1(C)CCC3C(C)(C)CCCC34COC2C14` (centres undefined), the TGI in [7] was determined as 26 µM; in [1] it was 63.7 µM; in assay [3], 35.9 µM; in assay [4], 28.1 µM; in assay [5], 28.8 µM; in assay [6] it was 27.5 µM. Besides, in assay [9], the TGI was 28.5 µM.
As for `COC(OC)c1cccnc1C`, the TGI in [1], in assay [2], in assay [3], in assay [5], in [10] and in assay [6] was over 100 µM throughout. This compound gave a TGI in assay [9] of over 100 µM.
For `O=C1c2ccccc2-c2c1c1ccccc1c(=O)n2CCNCCNCCNCCNCCn1c2c(c3ccccc3c1=O)C(=O)c1ccccc1-2`, the GI50 in [1] is 0.216 µM; in assay [2], 0.939 µM; in [8] it was 0.161 µM; in assay [3], 0.615 µM; in assay [5], 0.716 µM; in [6], 0.323 µM. The GI50 in [9] was 0.973 µM. In addition, the TGI came to 2.08 µM in [1]; 2.5 µM in assay [2]; 1.57 µM in assay [8]; 2.75 µM in assay [3]; 5.73 µM in assay [5]; 1.47 µM in assay [6]. Besides, in assay [9], the TGI is 2.24 µM.
In the case of `C[C@@H]1CC2(C[C@@H](C)C3[C@@H](CC4(C)CCCC5C6=CC(O)(CC[C@]34C)OC6=CC(=O)OC5(C)C)O2)OC1=O` (some centres undefined), the TGI in [1], in [2], in assay [3], in [4], in [10] and in assay [6] was over 100 µM each time.
On to `Fc1ccc(-c2ncn(C3CCNCC3)c2-c2ccnc(Oc3ccc(Cl)cc3)n2)cc1`, for which the GI50 is 3.67 µM in assay [7]; 4.96 µM in assay [1]; 6.37 µM in [8]; 4.12 µM in [4]; 3.22 µM in assay [6]; 3.7 µM in assay [9]. In addition, the TGI was 21.4 µM in [7]; 11.6 µM in assay [1]; over 15.8 µM in assay [8]; 7.93 µM in assay [4]; 6.41 µM in assay [6]; 7.46 µM in [9].
Take `N.N.N.N.O=S([O-])[O-].[Co+3].[N-]=[N+]=[N-]`: the GI50 in assay [7], in assay [1], in assay [2], in assay [3], in assay [4] and in [5] was over 100 µM throughout. For the same compound, the GI50 in assay [6] and in assay [9] was over 100 µM each time. The TGI in assay [7], in assay [1], in assay [2], in [3], in assay [4] and in assay [5] was over 100 µM each time. For the same compound, the TGI in [6] and in assay [9] was over 100 µM throughout.
Regarding `CC(NC1CCCC[C@@H]1O)c1ccccc1` (some centres undefined), the TGI in assay [1], in assay [2], in assay [4], in assay [5], in assay [6] and in assay [9] was over 100 µM each time.
On to `COC(=O)CCC(NC(=S)N/N=C(\C)c1cccs1)C(=O)OC` (centres undefined), for which the TGI in assay [7], in [2], in assay [3], in [4], in assay [5] and in [6] was over 100 µM in each case. This compound had a TGI in assay [9] of over 100 µM.
In the case of `O=C1C(=O)N(c2cc(Cl)ccc2Cl)C(=O)C(=O)C1c1nc2ccccc2s1`, the TGI in [7], in [1], in [2], in assay [3], in [5] and in assay [6] was over 100 µM throughout. The compound also registered a TGI in assay [9] of over 100 µM.
With `O=C1N=C2N=C(c3ccc(Cl)cc3)N(c3ccc(Cl)cc3)N2Sc2ccccc21`, the TGI in [7], in assay [1], in assay [2], in assay [3], in assay [4] and in [5] was over 100 µM each time. Also, the TGI in [6] and in assay [9] was over 100 µM each time.
On to `Cc1c(-c2ccc(-c3ccccc3F)cc2)nc2ccc(F)cc2c1C(=O)O`, for which the TGI in [7] was 181 µM and 647 µM; in assay [1], 36.4 µM and 148 µM and 302 µM; in [2] it was 88.6 µM; in [8], 119 µM and 343 µM; in assay [3] it was 173 µM and 529 µM; in [4] it was 115 µM and 129 µM. Further, the TGI was 155 µM and 236 µM in assay [5]; 58.6 µM and 186 µM in assay [6]; 35 µM and 199 µM in assay [9]. Moreover, the GI50 in [2] was 27.7 µM; in [8], 0.867 µM and 1.18 µM; in assay [3] it was 17.4 µM and 35.1 µM; in assay [4], 19.7 µM and 55.9 µM; in [6] it was 2.37 µM; in assay [9], 0.5 µM.
In the case of `COC(=O)c1c(C(=O)O)c(-c2ccccc2)c(-c2ccccc2)c(-c2ccccc2)c1-c1ccccc1`, the GI50 in assay [1], in [2], in assay [8], in assay [3], in [5] and in assay [6] was over 100 µM in each case. Also, in assay [9], the GI50 was over 100 µM. The TGI in assay [1], in [2], in [8], in assay [3], in assay [5] and in [6] was over 100 µM each time. The compound further registered a TGI in [9] of over 100 µM.
Consider `C[C@]12CC[C@H](OC(=O)Nc3ccccc3)CC1=CC[C@@H]1C2CC[C@]2(C)/C(=N/OC(=O)Nc3ccccc3)CCC12` (some centres undefined), for which the TGI in [7] is over 100 µM; in assay [1] it was over 100 µM; in assay [2] it was 72.1 µM; in assay [3] it was over 100 µM; in assay [4], over 100 µM; in assay [6] it was over 100 µM.
On to `C/C(=C\c1ccccc1)C(=O)c1c(C)cc(C)cc1C`, for which the TGI in assay [1], in assay [2], in [3], in assay [5], in assay [10] and in [6] was over 100 µM throughout. This compound yielded a TGI in assay [9] of over 100 µM.
With `CCCCS(=O)(=O)c1cc(Nc2ccc(O)c3c2C(=O)c2ccccc2C3=O)ccc1C`, the GI50 is over 100 µM in assay [7]; over 100 µM in assay [1]; over 100 µM in assay [2]; 5.01 µM in assay [8]; over 100 µM in [4]; 27.8 µM in assay [9]. Moreover, the TGI in assay [7], in [1], in assay [2], in assay [8], in [4] and in assay [9] was over 100 µM throughout.
Turning to `O=C(CC1(O)CCCCC1)OC1CCCC1`, the TGI in assay [7], in assay [2], in assay [8], in [3], in assay [5] and in [6] was over 100 µM each time. In assay [9], this compound had a TGI of over 100 µM.
Consider `CNC(=O)NCCCCC(NC(C)=O)C(=O)NCc1ccccc1` (centres undefined), for which the TGI in [7], in assay [2], in [3], in assay [4], in assay [5] and in assay [6] was over 100 µM throughout. The compound further registered a TGI in [9] of over 100 µM.
On to `O=C(NCCCN1CCN(CCCNC(=O)Nc2cc(Cl)ccc2Cl)CC1)Nc1cc(Cl)ccc1Cl`, for which the TGI in assay [1] is over 100 µM; in assay [2] it was over 100 µM; in assay [3], over 100 µM; in assay [5] it was 34 µM; in assay [6] it was over 100 µM; in [9] it was over 100 µM.
Take `COc1ccc(OCC(=O)O)c2c1CCC(C)C2=O` (centres undefined): the TGI in [7], in [1], in assay [4], in assay [5], in [6] and in [9] was over 100 µM each time.
Take `CN(C)C(=S)/N=c1\ssc(=Nc2ccccc2)n1-c1ccccc1`: the TGI in [7] was over 100 µM; in assay [1], over 100 µM; in [2] it was 46 µM; in assay [3], over 100 µM; in assay [4] it was 68.9 µM; in assay [5] it was over 100 µM. The same compound gave a TGI in assay [9] of 75.5 µM.
Consider `NCCOCCOCC(=O)O`, for which the TGI in assay [2], in assay [3], in assay [4], in assay [5], in assay [10] and in assay [6] was over 100 µM in each case.
For the compound `Nc1ccc(C(=O)N/C(=C\c2ccc3c(c2)OCO3)c2nc3ccccc3s2)cc1`, the TGI in assay [2] is 24.7 µM; in [4] it was 27.9 µM; in assay [10], 53.4 µM; in assay [6], 29.2 µM.
